This experiment has as its system HeLa. In words: Cytotoxicity against human HeLa cells. Type of experiment: functional, cell-based.

Two molecules from ChEMBL document CHEMBL1154222, “Ceratodictyols, 1-glyceryl ethers from the red alga-sponge association Ceratodictyon spongiosum/Haliclona cymaeformis” (J Nat Prod, 2009) can be followed below.

Usually IC50 stands for the concentration at which inhibition is half-maximal.

SMILES strings stand for the structures.

For the molecule `CCCCCCCCC/C=C/C(=O)CCCCOC[C@@H](O)CO` [CERATODICTYOL B], the IC50 was 67 µM.

`CCCCCCCCCCC(=O)/C=C/CCCOC[C@@H](O)CO` [CERATODICTYOL A] registered an IC50 of 67 µM.
